Reference: paper PMC7037682, “Herb–Drug Interaction of Red Ginseng Extract and Ginsenoside Rc with Valsartan in Rats” (Molecules, 2020)
Read-outs that look alike come from different tables or passages of the source.

Legend:
OCT1 = biological target: T1, OCT1 (Homo sapiens, UniProt O15245); assay: Inhibition of OCT1-mediated [3H]MPP+ uptake in HEK293-OCT1 cells
T1 sequence (O15245 1-554): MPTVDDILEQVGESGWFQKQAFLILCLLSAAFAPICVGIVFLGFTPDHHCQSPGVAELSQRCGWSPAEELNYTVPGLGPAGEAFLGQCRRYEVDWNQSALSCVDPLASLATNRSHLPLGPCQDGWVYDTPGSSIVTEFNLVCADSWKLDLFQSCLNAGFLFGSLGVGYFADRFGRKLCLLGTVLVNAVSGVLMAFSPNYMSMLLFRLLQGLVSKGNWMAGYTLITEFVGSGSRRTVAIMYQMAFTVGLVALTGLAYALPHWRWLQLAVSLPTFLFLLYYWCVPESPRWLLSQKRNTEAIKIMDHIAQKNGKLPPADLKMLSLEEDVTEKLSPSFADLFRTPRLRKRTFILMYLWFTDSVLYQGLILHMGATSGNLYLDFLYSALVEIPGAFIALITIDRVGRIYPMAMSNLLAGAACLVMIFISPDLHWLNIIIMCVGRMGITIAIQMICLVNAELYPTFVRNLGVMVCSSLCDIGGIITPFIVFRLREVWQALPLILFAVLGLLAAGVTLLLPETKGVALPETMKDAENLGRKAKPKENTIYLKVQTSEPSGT
Protocol: (§1) HEK293 cells overexpressing the OCT1, OCT2, OAT1, OAT3, OATP1B1, and OATP1B3 transporters (HEK293-OCT1, -OCT2, -OAT1, -OAT3, -OATP1B1, and -OATP1B3, respectively) and HEK293-mock cells (Corning Life Sciences; Woburn, MA, USA) were used and characterized as previously described.
(§2) HEK293 cells overexpressing drug transporters and HEK293-mock cells were seeded in poly-D-lysine-coated 96-well plates at a density of 10^5 cells/well and were cultured in DMEM supplemented with 10% FBS, 5 mM non-essential amino acids, and 2 mM sodium butyrate in a humidified atmosphere with 8% CO2 at 37 °C.
(§3) To examine the effects of ginsenosides and typical inhibitors on transporter activity, aliquots (100 μL) of HBSS containing the probe substrate and ginsenosides or typical inhibitors were added to the cells after aspirating pre-incubated HBSS. The concentrations and probe substrates were as follows: 0.1 μM [^3H]MPP^+ for OCT1 and OCT2, 0.1 μM [^3H]PAH for OAT1, 0.1 μM [^3H]ES for OAT3 and OATP1B1, and 0.1 μM [^3H]EG for OATP1B3. […] Then the uptake of probe substrates into HEK293-mock cells and HEK293-OCT1, -OCT2, -OAT1, -OAT3, -OATP1B1, and -OATP1B3 cells in the presence and absence of typical inhibitor or each ginsenoside with previously described concentration range was measured for 5 min. Immediately after placing the plates on ice, the cells were washed three times with 100 μL of ice-cold HBSS, followed by lysing with 50 μL of 10% SDS solution and mixing with 150 μL of Optiphase cocktail solution (Perkin Elmer Inc., Boston, MA, USA). The radioactivity of the probe substrates in the cells was determined using a liquid scintillation counter.
(§4) In the inhibition studies, the uptake rate of substrate by HEK293 cells overexpressing the respective transporters was used as the control (100%) and the uptake rate of substrates in the presence of typical inhibitors or ginsenosides expressed as a percentage of the control. The inhibition data were fitted to an inhibitory effect model using Sigma plot (version 10.0; Systat Software Inc., San Jose, CA, USA). IC50 value indicated the half-maximal inhibitory concentration of the inhibitor.

OCT2 = biological target: T2, OCT2 (Homo sapiens, UniProt O15244); assay: Inhibition of OCT2-mediated [3H]MPP+ uptake in HEK293-OCT2 cells
T2 sequence (O15244 1-555): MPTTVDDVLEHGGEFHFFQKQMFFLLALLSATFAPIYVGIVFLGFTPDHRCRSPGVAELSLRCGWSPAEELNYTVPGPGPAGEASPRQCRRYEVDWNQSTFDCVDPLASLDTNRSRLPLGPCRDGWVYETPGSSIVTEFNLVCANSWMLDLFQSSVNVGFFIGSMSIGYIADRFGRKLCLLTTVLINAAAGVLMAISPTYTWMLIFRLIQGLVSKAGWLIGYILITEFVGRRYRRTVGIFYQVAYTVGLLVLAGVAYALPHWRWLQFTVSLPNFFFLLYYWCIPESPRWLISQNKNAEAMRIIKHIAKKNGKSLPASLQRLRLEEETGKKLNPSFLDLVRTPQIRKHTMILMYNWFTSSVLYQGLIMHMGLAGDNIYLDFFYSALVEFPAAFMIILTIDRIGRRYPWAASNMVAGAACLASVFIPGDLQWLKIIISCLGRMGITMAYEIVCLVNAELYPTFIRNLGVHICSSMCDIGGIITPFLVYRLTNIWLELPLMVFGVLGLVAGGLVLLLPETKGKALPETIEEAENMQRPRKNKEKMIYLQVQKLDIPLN
Protocol: as §1, §2, §3, §4

[1] = Plasma pharmacokinetics of ginsenosides in rats after 1-week repeated RGE; conditions: for detection in rat plasma: LC-MS/MS; for maximum plasma concentration (molar): after RGE 1.5 g/kg/day po for 7 days
Protocol: The rats were randomly divided into the control and RGE groups. The RGE group received a RGE suspension (1.5 g/mL/kg/day, in distilled water) for 7 days via oral gavage. The control group received distilled water for 7 days via oral gavage. After 1 h following the last RGE treatment, valsartan was injected intravenously to both groups via the tail vein at 1 mg/mL/kg (dissolved in DMSO: saline = 2:8, v/v). […] After centrifugation of the blood samples at 16,000× g for 10 min, aliquots (50 μL each) of plasma samples were stored at −80 °C until the analysis of ginsenosides and valsartan.
The residue was reconstituted with 100 μL of 70% methanol consisting of 0.1% formic acid. An aliquot (20 μL) from the sample was injected into the LC-MS/MS system.
After freezing the aqueous layer at −80 °C for 2 h, the upper organic layer was transferred to a clean tube and evaporated to dryness. […] An aliquot (20 μL) from the sample was injected into the LC-MS/MS system. The samples were eluted through an Omega Polar C18 column (2.1 mm × 100 mm, 3 µm particle size) (Phenomenex, Torrance, CA, USA) using a mobile phase consisting of 0.1% formic acid in water: 0.1% formic acid in methanol (15:85, v/v) at a flow rate of 0.2 mL/min.
Pharmacokinetic parameters were calculated from plasma concentration-time profile using non-compartment analysis of WinNonlin (version 5.1; Pharsights, Cary, NC, USA). The statistical significance was assessed by t-test using Statistical Package for the Social Sciences (version 24.0; SPSS Inc., Chicago, IL, USA).

[2] = read-out: IC50 OCT1, HEK293-OCT1, 0.1 μM [3H]MPP+ uptake, 5 min
[3] = read-out: IC50 OCT2, HEK293-OCT2, 0.1 μM [3H]MPP+ uptake, 5 min
[4] = after RGE 1.5 g/kg/day po for 1 week
[5] = rat plasma, after RGE 1.5 g/kg/day po for 1 week

SMILES | IC50 (OCT1; [2]) [µM] | IC50 (OCT2; [3]) [µM] | detection in rat plasma [1, 4] | AUC ([1]; rat plasma, 0 to 48 h, after RGE 1.5 g/kg/day po for 1 week) [ng·h/mL] | Cmax [1, 5] [ng/mL] | MRT [1, 5] [h] | T1/2 [1, 5] [h] | Tmax [1, 5] [h] | maximum plasma concentration (molar) ([1]; rat plasma) [nM] | IC50 (OCT1) [µM] | IC50 (OCT2) [µM] | AUC ([1]; rat, plasma, po, 1.5 g/kg/day) [ng·h/mL] | Cmax ([1]; rat, plasma, po, 1.5 g/kg/day) [ng/mL] | MRT ([1]; rat, plasma, po, 1.5 g/kg/day) [h] | Tmax ([1]; rat, plasma, po, 1.5 g/kg/day) [h] | half-life ([1]; rat, plasma, po, 1.5 g/kg/day) [h]
CC(C)=CCCC(C)(O)[C@H]1CC[C@]2(C)[C@@H]1[C@H](O)C[C@@H]1[C@@]3(C)CC[C@H](O)C(C)(C)[C@@H]3CC[C@]12C (stereo in doubt) [PPD, protopanaxadiol] | > 100 | > 100 | detected | 542.01 ± 141.09 | 20.56 ± 9.47 | 21.56 ± 3.31 | 26.95 ± 18.33 | 16.50 ± 12.48 | 48.4 |  |  |  |  |  |  | 
CC(C)=CCC[C@](C)(O[C@@H]1O[C@H](CO)[C@@H](O)[C@H](O)[C@H]1O)[C@H]1CC[C@]2(C)[C@@H]1[C@H](O)C[C@@H]1[C@@]3(C)CC[C@H](O)C(C)(C)[C@@H]3[C@@H](O[C@@H]3O[C@H](CO)[C@@H](O)[C@H](O)[C@H]3O)C[C@]12C [Rg1, ginsenoside Rg1] |  |  | not detected |  |  |  |  |  |  | > 100 | > 100 |  |  |  |  | 
CC(C)=CCC[C@](C)(O[C@@H]1O[C@H](CO)[C@@H](O)[C@H](O)[C@H]1O)[C@H]1CC[C@]2(C)[C@@H]1[C@H](O)C[C@@H]1[C@@]3(C)CC[C@H](O[C@@H]4O[C@H](CO)[C@@H](O)[C@H](O)[C@H]4O[C@@H]4O[C@H](CO)[C@@H](O)[C@H](O)[C@H]4O)C(C)(C)[C@@H]3CC[C@]12C [Rd, ginsenoside Rd] |  |  |  |  |  |  |  |  | 5.3 | > 100 | > 100 | 164 ± 39.1 | 5.1 ± 0.74 | 20.8 ± 1.68 | 2.17 ± 1.76 | 43.5 ± 17.5
CC(C)=CCC[C@](C)(O[C@@H]1O[C@H](CO)[C@@H](O)[C@H](O)[C@H]1O)[C@H]1CC[C@]2(C)[C@@H]1[C@H](O)C[C@@H]1[C@@]3(C)CC[C@H](O)C(C)(C)[C@@H]3CC[C@]12C [Compound K, compound K] | > 100 | > 100 | not detected |  |  |  |  |  |  |  |  |  |  |  |  | 
